In patent publication US10710994B2, “Oxadiazole transient receptor potential channel inhibitors” (Genentech, Inc., priority 2018, dated 2020):
pIC50: −log10 of the molar value. Like-named read-outs stand apart in the source and are kept apart here.

Target: human TRPA1 channel (Homo sapiens (Human), UniProt O75762)
Experiment: hTRPA1 CHO Ca2+ FLIPR Tetra assay: block of cinnamaldehyde induced calcium influx
Format: cell-based
Conditions: CHO cells expressing TRPA1, Hill coefficient fixed to 1.5
Experimental: CHO cells expressing TRPA1 were plated into 384-well plates, incubated overnight at 37° C., and loaded with BD calcium indicator dye for 1 hr at 37° C. followed by 15 minutes at room temperature. The assay buffer was Hank's Balanced Salt Solution (HBSS) containing 20 mM HEPES (pH readjusted to 7.4) along with 0.02% BSA.
Following dye load and plate cool down, compounds were added to the cells using FLIPR Tetra. Plates were then incubated with compounds for 10 minutes or 90 minutes at room temperature prior to adding agonist. Following this incubation, about an EC80 concentration of cinnamaldehyde […] was added to active the channels and block of cinnamaldehyde induced calcium influx was measured.
Fixing the Hill coefficient will generally reduce variability of the IC50 determination. The IC50 results were individually examined to make sure the MIN and MAX points were set correctly prior to validation of the results.

[1] = read-out: hTRPA1 IC50 10 min, 10 minutes incubation with compound before cinnamaldehyde (about EC80)
[2] = read-out: hTRPA1 IC50 90 min, 90 minutes incubation with compound before cinnamaldehyde (about EC80)

human TRPA1 channel, sequence (O75762 whole entry): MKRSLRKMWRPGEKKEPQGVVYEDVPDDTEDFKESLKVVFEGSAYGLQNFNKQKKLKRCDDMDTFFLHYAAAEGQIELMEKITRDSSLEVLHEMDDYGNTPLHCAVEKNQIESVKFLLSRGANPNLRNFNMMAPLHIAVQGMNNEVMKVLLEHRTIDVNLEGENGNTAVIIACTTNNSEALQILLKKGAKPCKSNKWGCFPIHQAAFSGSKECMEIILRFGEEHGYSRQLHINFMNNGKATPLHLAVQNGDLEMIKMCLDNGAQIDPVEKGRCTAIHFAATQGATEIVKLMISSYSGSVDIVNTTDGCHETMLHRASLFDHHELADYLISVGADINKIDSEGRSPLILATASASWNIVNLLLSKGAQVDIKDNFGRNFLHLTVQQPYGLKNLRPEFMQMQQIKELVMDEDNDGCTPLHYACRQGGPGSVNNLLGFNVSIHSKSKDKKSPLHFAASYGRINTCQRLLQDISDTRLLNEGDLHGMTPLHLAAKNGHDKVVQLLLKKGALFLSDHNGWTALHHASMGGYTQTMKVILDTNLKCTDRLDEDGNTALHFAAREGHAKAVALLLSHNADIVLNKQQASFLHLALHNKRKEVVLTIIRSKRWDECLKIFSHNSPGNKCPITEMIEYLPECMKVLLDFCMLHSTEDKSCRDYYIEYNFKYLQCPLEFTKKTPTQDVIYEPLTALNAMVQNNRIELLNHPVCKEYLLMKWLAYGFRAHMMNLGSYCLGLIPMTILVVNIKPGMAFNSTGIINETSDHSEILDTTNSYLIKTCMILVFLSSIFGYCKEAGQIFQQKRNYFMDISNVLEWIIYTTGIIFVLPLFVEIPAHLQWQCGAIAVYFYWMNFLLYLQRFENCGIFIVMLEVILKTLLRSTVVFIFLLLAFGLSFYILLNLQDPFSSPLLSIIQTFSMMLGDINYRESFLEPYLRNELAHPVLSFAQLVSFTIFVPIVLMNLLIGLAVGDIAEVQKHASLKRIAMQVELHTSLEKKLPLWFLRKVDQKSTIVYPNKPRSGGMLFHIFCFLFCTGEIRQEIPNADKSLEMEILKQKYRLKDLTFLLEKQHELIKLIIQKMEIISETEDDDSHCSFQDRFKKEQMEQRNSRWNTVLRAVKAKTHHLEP

Row | Compound | pIC50 [1] | pIC50 [2]
1 | Cn1c(N)nc2ncn(Cc3nc([C@@H]4CO[C@@H](c5ccc(Cl)cc5)C4)no3)c(=O)c21 [Example 26, 8-amino-1-((3-((3R,5R)-5-(4-chlorophenyl)tetrahydro-furan-3-yl)-1,2,4-oxadiazol-5-yl)methyl)-7-methyl-1,7-dihydro-6H-purin-6-one] | 7.23 | 8.01
2 | Cn1cnc2ncn(Cc3nc([C@@H]4CO[C@@H](c5ccc(-c6ccccc6)cc5)C4)no3)c(=O)c21 [Example 30, 1-((3-((3R,5R)-5-[(1,1′-biphenyl]-4-yl)tetrahydrofuran-3-yl)-1,2,4-oxadiazol-5-yl)methyl)-7-methyl-1,7-dihydro-6H-purin-6-one] | 6.21 | 6.43
3 | Cn1cnc2ncn(Cc3nc([C@@H]4CO[C@@H](c5ccc(Cl)c(Cl)c5)C4)no3)c(=O)c21 [Example 31, 1-((3-((3R,5R)-5-(3,4-dichlorophenyl)tetra-hydrofuran-3-yl)-1,2,4-oxadiazol-5-yl)methyl)-7-methyl-1,7-dihydro-6H-purin-6-one] | 7.71 | 8.11
4 | Cn1cnc2ncn(Cc3nc([C@@H]4CO[C@@H](c5cc(F)cc(F)c5)C4)no3)c(=O)c21 [Example 34, 1-((3-((3R,5R)-5-(3,5-difluorophenyl)tetra-hydrofuran-3-yl)-1,2,4-oxadiazol-5-yl)methyl)-7-methyl-1,7-dihydro-6H-purin-6-one] | 7.20 | 7.55
5 | Cn1cnc2ncn(Cc3nc([C@@H]4CO[C@@H](c5ccc(C#N)cc5)C4)no3)c(=O)c21 [Example 37, 4-((2R,4R)-4-(5-((7-methyl-6-oxo-6,7-dihydro-1H-purin-1-yl)methyl)-1,2,4-oxadiazol-3-yl)tetrahydrofuran-2-yl)benzonitrile] | 6.97 | 7.28
6 | Cn1cnc2ncn(Cc3nc([C@@H]4CO[C@@H](c5ccc(C(F)(F)F)cc5)C4)no3)c(=O)c21 [Example 38, 7-methyl-1-((3-((3R,5R)-5-(4-(trifluoromethyl)phenyl)tetrahydrofuran-3-yl)-1,2,4-oxadiazol-5-yl)methyl)-1,7-dihydro-6H-purin-6-one] | 7.33 | 7.54
7 | Cn1cnc2ncn(Cc3nc([C@@H]4CO[C@@H](c5cc(F)c(F)c(F)c5)C4)no3)c(=O)c21 [Example 40, 7-methyl-1-((3-((3R,5R)-5-(3,4,5-trifluorophenyl)tetrahydrofuran-3-yl)-1,2,4-oxadiazol-5-yl)methyl)-1,7-dihydro-6H-purin-6-one] | 7.56 | 7.96
8 | Cn1cnc2ncn(Cc3nc([C@@H]4CO[C@@H](c5ccc(Cl)cn5)C4)no3)c(=O)c21 [Example 41, 1-((3-((3R,5R)-5-(5-chloropyridin-2-yl)tetrahydrofuran-3-yl)-1,2,4-oxadiazol-5-yl)methyl)-7-methyl-1,7-dihydro-6H-purin-6-one] | 6.72 | 6.77
9 | Cn1cnc2ncn(Cc3nc([C@@H]4CO[C@@](C)(c5ccc(Cl)cc5)C4)no3)c(=O)c21 [Example 42, 1-((3-((3R,5R)-5-(4-chlorophenyl)-5-methyltetrahydrofuran-3-yl)-1,2,4-oxadiazol-5-yl)methyl)-7-methyl-1,7-dihydro-6H-purin-6-one] | 5.43 | 5.66
10 | Cn1cnc2ncn(Cc3nc([C@@H]4CO[C@@]5(Cc6ccccc65)C4)no3)c(=O)c21 [Example 43, 1-((3-((4′R,7R)-4′,5′-dihydro-3′H-spiro[bicyclo[4.2.0]octane-7,2′-furan]-1(6),2,4-trien-4′-yl)-1,2,4-oxadiazol-5-yl)methyl)-7-methyl-1,7-dihydro-6H-purin-6-one] | 6.56 | 6.85
11 | O=c1c2ccncc2ncn1Cc1nc([C@@H]2CO[C@@H](c3ccc(Cl)cc3)C2)no1 [Example 45, 3-((3-((3R,5R)-5-(4-chlorophenyl)tetrahydro-furan-3-yl)-1,2,4-oxadiazol-5-yl)methyl)pyrido[3,4-d] pyrimidin-4(3H)-one] | 7.71 | 8.11
12 | Cn1c(=O)ccc2ncn(Cc3nc([C@@H]4CO[C@@H](c5ccc(Cl)cc5)C4)no3)c(=O)c21 [Example 46, 3-((3-((3R,5R)-5-(4-chlorophenyl)tetra-hydrofuran-3-yl)-1,2,4-oxadiazol-5-yl)methyl)-5-methyl-3,5-dihydropyrido[3,2-d] pyrimidine-4,6-dione] | 7.84 | 7.85
13 | Cc1c(=O)ncn2cnn(Cc3nc([C@@H]4CO[C@@H](c5ccc(Cl)cc5)C4)no3)c(=O)c12 [Example 47, 2-((3-((3R,5R)-5-(4-chlorophenyl)tetra-hydrofuran-3-yl)-1,2,4-oxadiazol-5-yl)methyl)-9-methyl-2H-pyrimido[1,6-d][1,2,4] triazine-1,8-dione] | 6.48 | 6.62
14 | Cn1c(=O)c2c(ncn2Cc2nc([C@@H]3CO[C@@H](c4ccc(Cl)cc4)C3)no2)n(C)c1=O [Example 50, 7-((3-((3R,5R)-5-(4-chlorophenyl)tetrahydro-furan-3-yl)-1,2,4-oxadiazol-5-yl)methyl)-1,3-dimethyl-3,7-dihydro-1H-purine-2,6-dione] | 7.29 | 7.24
15 | Cn1c(NCc2ccccn2)nc2ncn(Cc3nc([C@@H]4CO[C@@H](c5ccc(Cl)cc5)C4)no3)c(=O)c21 [Example 51] | 7.40 | 7.54

The next compounds have a higher pIC50 [2] than those just listed; values first:

Row | pIC50 [1] | pIC50 [2] | Compound
16 | 8.18 | 8.24 | O=c1c2cccnc2ncn1Cc1nc([C@@H]2CO[C@@H](c3ccc(Cl)cc3)C2)no1 [Example 25, 3-((3-((3R,5R)-5-(4-chlorophenyl)tetrahydro-furan-3-yl)-1,2,4-oxadiazol-5-yl)methyl)pyrido[2,3-d]pyrimidin-4(3H)-one]
17 | 7.79 | 8.24 | Cc1ccc([C@H]2C[C@H](c3noc(Cn4cnc5ncn(C)c5c4=O)n3)CO2)cc1 [Example 27, 7-methyl-1-((3-((3R,5R)-5-(p-tolyl)tetrahydrofuran-3-yl)-1,2,4-oxadiazol-5-yl)methyl)-1,7-dihydro-6H-purin-6-one]
18 | 8.20 | 8.41 | Nc1ccc2c(=O)n(Cc3nc([C@@H]4CO[C@@H](c5ccc(Cl)cc5)C4)no3)cnc2n1 [Example 28, 7-amino-3-((3-((3R,5R)-5-(4-chlorophenyl)tetrahydro-furan-3-yl)-1,2,4-oxadiazol-5-yl)methyl)pyrido[2,3-d]pyrimidin-4(3H)-one]
19 | 8.11 | 8.74 | Cn1cnc2ncn(Cc3nc([C@@H]4CO[C@@H](c5ccc(Br)cc5)C4)no3)c(=O)c21 [Example 29, 1-((3-((3R,5R)-5-(4-bromophenyl)tetra-hydrofuran-3-yl)-1,2,4-oxadiazol-5-yl)methyl)-7-methyl-1,7-dihydro-6H-purin-6-one]
20 | 8.10 | 8.70 | Cn1cnc2ncn(Cc3nc([C@@H]4CO[C@@H](c5ccc(Cl)c(F)c5)C4)no3)c(=O)c21 [Example 32, 1-((3-((3R,5R)-5-(4-chloro-3-fluorophenyl)tetrahydro-furan-3-yl)-1,2,4-oxadiazol-5-yl)methyl)-7-methyl-1,7-dihydro-6H-purin-6-one]
21 | 8.39 | 8.62 | Cn1cnc2ncn(Cc3nc([C@@H]4CO[C@@H](c5ccc6ccccc6c5)C4)no3)c(=O)c21 [Example 33, 7-methyl-1-((3-((3R,5R)-5-(naphthalen-2-yl)tetrahydrofuran-3-yl)-1,2,4-oxadiazol-5-yl)methyl)-1,7-dihydro-6H-purin-6-one]
22 | 7.79 | 8.44 | Cn1cnc2ncn(Cc3nc([C@@H]4CO[C@@H](c5ccc(F)c(Cl)c5)C4)no3)c(=O)c21 [Example 35, 1-((3-((3R,5R)-5-(3-chloro-4-fluorophenyl)tetrahydro-furan-3-yl)-1,2,4-oxadiazol-5-yl)methyl)-7-methyl-1,7-dihydro-6H-purin-6-one]
23 | 8.51 | 9.38 | Cn1cnc2ccn(Cc3nc([C@@H]4CO[C@@H](c5ccc(Cl)cc5)C4)no3)c(=O)c21 [Example 39, 5-((3-((3R,5R)-5-(4-chlorophenyl)tetrahydro-furan-3-yl)-1,2,4-oxadiazol-5-yl)methyl)-3-methyl-3,5-dihydro-4H-imidazo[4,5-c]pyridin-4-one]
24 | 8.49 | 8.89 | Cc1cncc2ncn(Cc3nc([C@@H]4CO[C@@H](c5ccc(Cl)cc5)C4)no3)c(=O)c12 [Example 44, 3-((3-((3R,5R)-5-(4-chlorophenyl)tetrahydro-furan-3-yl)-1,2,4-oxadiazol-5-yl)methyl)-5-methylpyrido[3,4-d]pyrimidin-4(3H)-one]
25 | 8.92 | 9.10 | Cc1cnn2ncn(Cc3nc([C@@H]4CO[C@@H](c5ccc(Cl)cc5)C4)no3)c(=O)c12 [Example 48, 3-((3-((3R,5R)-5-(4-chlorophenyl)tetra-hydrofuran-3-yl)-1,2,4-oxadiazol-5-yl)methyl)-5-methylpyrazolo[5,1-f][1,2,4]triazin-4(3H)-one]
26 | – | 8.37 | Cc1ccc(=O)n2ccn(Cc3nc([C@@H]4CO[C@@H](c5ccc(Cl)cc5)C4)no3)c(=O)c12 [Example 49, 2-((3-((3R,5R)-5-(4-chlorophenyl)tetrahydro-furan-3-yl)-1,2,4-oxadiazol-5-yl)methyl)-9-methyl-2H-pyrido[1,2-a]pyrazine-1,6-dione]
